26 molecules from patent US20210238176A1, “PESTICIDALLY-ACTIVE BICYCLIC HETEROAROMATIC COMPOUNDS” (SYNGENTA CROP PROTECTION AG, priority 2018, published 2021) can be followed below.

For assay [1], the system named is Myzus persicae (Green Peach Aphid). Briefly: Myzus persicae (green peach aphid) feeding/contact activity, sunflower leaf discs. In kind it is in vivo. The conditions noted are these: foliar, 144 h, application rate 200 ppm, aphid population of mixed ages, 6 days after infestation. As for the experimental part: Myzus persicae (Green Peach Aphid): Feeding/Contact Activity
Sunflower leaf discs were placed onto agar in a 24-well microtiter plate and sprayed with aqueous test solutions prepared from 10,000 ppm DMSO stock solutions. After drying, the leaf discs were infested with an aphid population of mixed ages. The samples were assessed for mortality 6 days after infestation.

For assay [2] the test system is unchanged. The experiment in a line: Myzus persicae intrinsic activity, sucrose solution under Parafilm. As to conditions: 120 h, test rate 12 ppm, 5 days after infestation. In kind it is in vivo. From the text: Myzus persicae (Green Peach Aphid). Intrinsic Activity
Test compounds prepared from 10,000 ppm DMSO stock solutions were applied by pipette into 24-well microtiter plates and mixed with sucrose solution. The plates were closed with a stretched Parafilm. A plastic stencil with 24 holes was placed onto the plate and infested pea seedlings were placed directly on the Parafilm. The infested plate was closed with a gel blotting paper and another plastic stencil and then turned upside down. The samples were assessed for mortality 5 days after infestation.

By mortality is commonly meant the share of the test organisms that died. A lower mortality goes with more survivors. Turning to `O=c1nc2n(Cc3ccc(Cl)nc3)cccc-2n1-c1cccc(-c2ccccc2)c1` [Compound A1, 4-[(6-chloro-3-pyridyl)methyl]-1-(3-phenylphenyl)imidazo[4,5-b]pyridin-2-one], the mortality at 200 ppm in assay [1] was no less than 80%. This molecule had a mortality at 12 ppm in assay [2] of no less than 80%. On to `O=c1nc2n(Cc3ccc(Cl)nc3)cccc-2n1-c1cnn(-c2ccccc2)c1` [Compound A5, 4-[(6-chloro-3-pyridyl)methyl]-1-(1-phenylpyrazol-4-yl)imidazo[4,5-b]pyridin-2-one], for which the mortality at 200 ppm in assay [1] is no less than 80%. This molecule came in with a mortality at 12 ppm in assay [2] of no less than 80%. Turning to `O=c1nc2n(Cc3ccc(Cl)nc3)cccc-2n1-c1cccc(Cl)c1` [Compound A6, 1-(3-chlorophenyl)-4-[(6-chloro-3-pyridyl)methyl]imidazo[4,5-b]pyridin-2-one], in assay [1], the mortality at 200 ppm is no less than 80%. This molecule showed a mortality at 12 ppm in assay [2] of no less than 80%. In the case of `COc1cccc(-n2c3cccn(Cc4ccc(Cl)nc4)c-3nc2=O)c1` [Compound A7, 4-[(6-chloro-3-pyridyl)methyl]-1-(3-methoxyphenyl)imidazo[4,5-b]pyridin-2-one], the mortality at 200 ppm in assay [1] was no less than 80%. For the same molecule, in assay [2], the mortality at 12 ppm is no less than 80%. Take `COc1ccc(-n2c3cccn(Cc4ccc(Cl)nc4)c-3nc2=O)cc1` [Compound A8, 4-[(6-chloro-3-pyridyl)methyl]-1-(4-methoxyphenyl)imidazo[4,5-b]pyridin-2-one]: in assay [1], the mortality at 200 ppm was no less than 80%. Further, in assay [2], the mortality at 12 ppm was no less than 80%.

As to `O=c1nc2n(Cc3ccc(Cl)nc3)cccc-2n1-c1ccc(Cl)cc1` [Compound A9, 1-(4-chlorophenyl)-4-[(6-chloro-3-pyridyl)methyl]imidazo[4,5-b]pyridin-2-one], the mortality at 200 ppm in assay [1] is no less than 80%. For the same molecule, the mortality at 12 ppm in assay [2] was no less than 80%. For the molecule `N#Cc1ccc(-n2c3cccn(Cc4ccc(Cl)nc4)c-3nc2=O)cc1` [Compound A10, 4-[4-[(6-chloro-3-pyridyl)methyl]-2-oxo-imidazo[4,5-b]pyridin-1-yl]benzonitrile], the mortality at 200 ppm in assay [1] is no less than 80%. For the same molecule, the mortality at 12 ppm in assay [2] is no less than 80%. On to `N#Cc1cccc(-n2c3cccn(Cc4ccc(Cl)nc4)c-3nc2=O)c1` [Compound A11, 3-[4-[(6-chloro-3-pyridyl)methyl]-2-oxo-imidazo[4,5-b]pyridin-1-yl]benzonitrile], for which the mortality at 200 ppm in assay [1] is no less than 80%. The molecule also showed a mortality at 12 ppm in assay [2] of no less than 80%. Take `O=c1nc2n(Cc3ccc(Cl)nc3)cccc-2n1-c1ccnc(C(F)(F)F)c1` [Compound A14, 4-[(6-chloro-3-pyridyl)methyl]-1-[2-(trifluoromethyl)-4-pyridyl]imidazo[4,5-b]pyridin-2-one]: the mortality at 200 ppm in assay [1] was no less than 80%. For the same molecule, the mortality at 12 ppm in assay [2] was no less than 80%. In assay [2], `O=c1nc2n(Cc3ccc(Cl)nc3)cccc-2n1-c1cc(C(F)F)ccn1` [Compound A19, 4-[(6-chloro-3-pyridyl)methyl]-1-[4-(difluoromethyl)-2-pyridyl]imidazo[4,5-b]pyridin-2-one] displayed a mortality at 12 ppm of no less than 80%.

Consider `O=c1nc2n(Cc3ccc(Cl)nc3)cccc-2n1-c1cccc(C(F)(F)F)c1` [Compound A21, 4-[(6-chloro-3-pyridyl)methyl]-1-[3-(trifluoromethyl)phenyl]imidazo[4,5-b]pyridin-2-one], for which the mortality at 200 ppm in assay [1] was no less than 80%. For the same molecule, the mortality at 12 ppm in assay [2] was no less than 80%.

On to `O=c1nc2n(Cc3ccc(Cl)nc3)cccc-2n1-c1ncccn1` [Compound A23, 4-[(6-chloro-3-pyridyl)methyl]-1-pyrimidin-2-yl-imidazo[4,5-b]pyridin-2-one], for which the mortality at 200 ppm in assay [1] was no less than 80%. For the molecule `Cc1cccc(-n2c3cccn(Cc4ccc(Cl)nc4)c-3nc2=O)c1` [Compound A29, 4-[(6-chloro-3-pyridyl)methyl]-1-(m-tolyl)imidazo[4,5-b]pyridin-2-one], the mortality at 200 ppm in assay [1] is no less than 80%. The molecule further yielded a mortality at 12 ppm in assay [2] of no less than 80%. In assay [1], `O=c1nc2n(Cc3cnc(Cl)s3)cccc-2n1-c1ccccc1` [Compound A36, 4-[(2-chlorothiazol-5-yl)methyl]-1-phenyl-imidazo[4,5-b]pyridin-2-one] yielded a mortality at 200 ppm of no less than 80%. The mortality at 12 ppm in assay [2] is no less than 80%.

Regarding `O=c1nc2n(Cc3ccc(Cl)nc3)cccc-2n1-c1ccccc1Cl` [Compound A38, 1-(2-chlorophenyl)-4-[(6-chloro-3-pyridyl)methyl]imidazo[4,5-b]pyridin-2-one], the mortality at 200 ppm in assay [1] was no less than 80%. This molecule also registered a mortality at 12 ppm in assay [2] of no less than 80%. Turning to `O=c1nc2n(Cc3ccc(Cl)nc3)cccc-2n1-c1ccc(Cl)cc1Cl` [Compound A41, 4-[(6-chloro-3-pyridyl)methyl]-1-(2,4-dichlorophenyl)imidazo[4,5-b]pyridin-2-one], in assay [2], the mortality at 12 ppm is no less than 80%.

Take `O=c1nc2n(Cc3ccc(Cl)nc3)cccc-2n1-c1nccnc1C(F)(F)F` [Compound A42, 4-[(6-chloro-3-pyridyl)methyl]-1-[3-(trifluoromethyl)pyrazin-2-yl]imidazo[4,5-b]pyridin-2-one]: the mortality at 200 ppm in assay [1] is no less than 80%. The mortality at 12 ppm in assay [2] was no less than 80%. With `O=c1nc2n(Cc3ccc(Cl)nc3)cccc-2n1-c1ccsc1` [Compound A47, 4-[(6-chloro-3-pyridyl)methyl]-1-(3-thienyl)imidazo[4,5-b]pyridin-2-one], the mortality at 12 ppm in assay [2] is no less than 80%. Still for that read-out and setting: the same measure for `Cc1ccc(C)c(-n2c3cccn(Cc4ccc(Cl)nc4)c-3nc2=O)c1` [Compound A51, 4-[(6-chloro-3-pyridyl)methyl]-1-(2,5-dimethylphenyl)imidazo[4,5-b]pyridin-2-one]: no less than 80%. Take `Cc1ccc(-n2c3cccn(Cc4ccc(Cl)nc4)c-3nc2=O)s1` [Compound A67, 4-[(6-chloro-3-pyridyl)methyl]-1-(5-methyl-2-thienyl)imidazo[4,5-b]pyridin-2-one]: in assay [1], the mortality at 200 ppm is no less than 80%. Moreover, the mortality at 12 ppm in assay [2] is no less than 80%. `O=c1nc2n(Cc3ccc(Cl)nc3)cccc-2n1-c1csc(C(F)F)c1` [Compound A68, 4-[(6-chloro-3-pyridyl)methyl]-1-[5-(difluoromethyl)-3-thienyl]imidazo[4,5-b]pyridin-2-one] displayed a mortality at 12 ppm in assay [2] of no less than 80%. In assay [2], `O=c1nc2n(Cc3ccc(Cl)nc3)cccc-2n1-c1csc(C(F)(F)F)c1` [Compound A71, 4-[(6-chloro-3-pyridyl)methyl]-1-[5-(trifluoromethyl)-3-thienyl]imidazo[4,5-b]pyridin-2-one] displayed a mortality at 12 ppm of no less than 80%. The same measure, in the same setting: the same measure for `O=c1nc2n(Cc3ccc(Cl)nc3)cccc-2n1-c1cc(F)cs1` [Compound A73, 4-[(6-chloro-3-pyridyl)methyl]-1-(4-fluoro-2-thienyl)imidazo[4,5-b]pyridin-2-one]: no less than 80%. Molecule `COC(=O)c1ccc(-n2c3cccn(Cc4ccc(Cl)nc4)c-3nc2=O)o1` [Compound A77, methyl 5-[4-[(6-chloro-3-pyridyl)methyl]-2-oxo-imidazo[4,5-b]pyridin-1-yl]furan-2-carboxylate] registered a mortality at 12 ppm in assay [2] of no less than 80%. `O=c1nc2n(Cc3ccc(Cl)nc3)cccc-2n1-c1cnn(C2COC2)c1` [Compound A87, 4-[(6-chloro-3-pyridyl)methyl]-1-[1-(oxetan-3-yl)pyrazol-4-yl]imidazo[4,5-b]pyridin-2-one] displayed a mortality at 200 ppm in assay [1] of no less than 80%. On to `CCn1nccc1-n1c2cccn(Cc3ccc(Cl)nc3)c-2nc1=O` [Compound A89, 4-[(6-chloro-3-pyridyl)methyl]-1-(2-ethylpyrazol-3-yl)imidazo[4,5-b]pyridin-2-one], for which the mortality at 12 ppm in assay [2] was no less than 80%.
